Measurements as given in patent publication US20200383926A1, “ENTERIC COATED PHARMACEUTICAL COMPOSITION AND USE THEREOF” (SHIN ERA TECHNOLOGY CO. LTD., priority 2017, published 2020).

Test: Phosphate binding assay (molybdate colorimetry, OD700) at pH 8.3
Conditions: KH2PO4 0.53M, room temperature (about 25° C.), 2 hours
Protocol: Since the phosphate uptake in human body mostly takes place in the intestine instead of stomach, we tested the phosphate-binding ability of the aforesaid 60% deacetylation chitosan citrate (CHS-60L) and 90% deacetylation chitosan citrate (CHS-90L) in an environment of pH 8.3, which mimicked to the intestine environment in vivo.
Briefly, KH2PO4 and the present chitosan citrate were mixed at room temperature (about 25° C.) for 2 hours. Then, 2 μl of the mixture of each group (and KH2PO4 without reaction with binding agents) was mixed with 120 μl of acetate buffer (0.1 N acetic acid and 0.025 N of CH3COONa), 12 μl of ascorbic acid (1 wt %), and […] of NH4MoO4 (1%, in 0.05 N H2SO4) at room temperature for 20 to 30 minutes. After that, the OD700 of the mixture was detected by spectrometer. The conventional phosphate binding agent, calcium carbonate, was used as positive control of the experiment.

For O=C([O-])[O-].[Ca+2] [calcium carbonate], the “Binding ability (%)” value (binding agent 10 mM) was 70.90% and the “Binding ability (%)” value (binding agent 20 mM) was 75.40%.
